The structures appear in SMILES notation.

Assay [1] concerns S. enterica Typhimurium. Set-up: method as in PMID 36929450. Particulars: 100 µM (supra-physiological); cited from earlier work.
In assay [2] the test system is leup operon (leupeptin BGC) promoter in K. oxytoca ATCC 8724. Kind of assay: GFP-based transcriptional reporter for the leup operon. It is filed as cell-based, Klebsiella oxytoca. Particulars: carbohydrate screen, M9 + casamino acid + 0.4% indicated sugar, 30 °C, 24 h. The source says:
We previously examined a panel of 84 clinical K. oxytoca isolates (including recently renamed Klebsiella michiganensis isolates) for the presence of either the leup operon or npsB, an NRPS of the tilimycin/tilivalline gene cluster. […] While the roles of tilivalline and tilimycin in hemorrhagic colitis are well studied[8],[9], the operon for leupeptin biosynthesis is “silent” in K. oxytoca under typical laboratory culture conditions (i.e., leupeptin production is undetectable). Therefore, our study commenced by exploring growth conditions required to trigger leupeptin biosynthesis in K. oxytoca. To achieve this, we generated a green fluorescent protein (GFP)-based reporter system to monitor leup transcription in K. oxytoca ATCC 8724 (recently renamed as Klebsiella michiganensis (ATCC 8724), Fig. 1a). We utilized λ-red recombineering techniques[38] to replace the first biosynthetic gene (leupA) of the leupeptin BGC with a GFP-spectinomycin resistance cassette. […] Consequently, conditions that elicit transcription of the leupeptin BGC can be monitored by GFP fluorescence intensity.
(§1) 5 mL of the leupeptin reporter strain was cultured aerobically in 10 g/L of LB (Becton Dickinson), yeast extract, GAM (HiMedia Laboratories), horse liver extract (HiMedia Laboratories), malt extract (VWR), meat extract (HiMedia Laboratories), YPD (Dot Scienticifc), brain heart infusion (Becton Dickinson), porcine mucin (Sigma-Aldrich, M1778), clostridial (Becton Dickinson), TSB (VWR), or casamino acid supplemented (5 g/L, VWR) M9 minimal salts (MP Biomedicals) at 30 °C for 24 h at 250 rpm. Cultures were lysed via sonication, centrifuged, and 150 µL of the supernatants were aliquoted into black well clear bottom 96 well plates. GFP fluorescence measurements were performed on a BioTek Synergy H1 plate reader with an excitation wavelength of 488 nm and an emission wavelength of 525 nm. For the carbohydrate screen, the leupeptin reporter strain was cultured in M9 minimal medium (MPbio) supplemented with casamino acid (5 g/L, VWR) and 0.4% indicated sugar aerobically at 30 °C for 24 h at 250 rpm.

The test system of assay [3] is wildtype K. oxytoca ATCC 8724. Kind of assay: Leupeptin detection in culture extracts by HPLC-QTOF-MS. The class given is cell-based, Klebsiella oxytoca. Particulars: added to cultivation medium. As to the method:
as §1
For MS-based determination of leupeptin activation, wildtype K. oxytoca ATCC 8724 was cultured in 5 mL of M9 minimal medium supplemented with 5 g/L casamino acids and 0.4% Neu5Ac. […] To measure the area under the curves for specific molecular features, the exact monoprotonated [M + H]^+ mass was calculated and extracted ion chromatographs (EICs) with a 10-ppm error were constructed. […]

Assay [4] relates to K. oxytoca. Kind of assay: Culture growth (OD600) with sialic acid supplementation. It is filed as cell-based, Klebsiella oxytoca. Particulars: M9+CAS with sialic acid, peer review file, not added to the study. As to the method:
as 2 times the recorded value). Importantly, all cultures in this experiment grew. […]
supplemented cultures. All cultures had reached stationary phase after 24 hours. While Neu5Gc cultures did grow slower than Neu5Ac cultures, the term suppression was incorrect. Therefore, we deleted text around Neu5Gc suppression and have changed line 123 to now read: […]
the SI. The following growth analysis was not added to the study.
2. Fig3 describes the role of PLP-enzyme for the production of pyrazines (features 5-9). From
Fig.3a it is clear that features 5 and 7 are different from 6, 8, and 9. Are there functional differences between these 2 groups of compounds in terms of siderophore production? […]
complementation of the pyr mutant with feature 7 could induce siderophore production (Fig4).
What about the features from the other group (6, 8, and 9)?
To address this comment, we performed RNA-seq analysis feeding compound 6 and looked at regulated genes/operons. Similar to compound 7, compound 6 supplementation increased the […]
a table listing specific genes, is now included in the SI. As such, lines 345-348 now read: […]
compound also differentially regulated the transcriptome (201 genes with Padj < 0.05; abs(log2FC) > 1) and enhanced the transcription of genes related to iron acquisition and iron metabolism (Supplemental Information).”
(also on this page, place not known: value ). PLP -enzyme -9). […]

On to `Cc1c[nH]c(=O)c(C)n1` [DPO, dimethylpyrazine-2-ol], for which, in assay [1], the “effect on iron acquisition pathways” value was “downregulated iron acquisition pathways”.
Consider `CC(=O)N[C@H]1[C@H]([C@H](O)[C@H](O)CO)OC(O)(C(=O)O)C[C@@H]1O` (stereo partly shown) [Neu5Ac, N-acetylneuraminic acid], for which the “GFP fluorescence, GFP Strain + Media” value in assay [2] (leup GFP reporter strain) worked out at 85763 RFU. Also, the “GFP fluorescence, WT + Media” value in assay [2] (wildtype K. oxytoca without reporter (background)) worked out at 8846 RFU. Moreover, the “induction of leupeptin (1) production” value in assay [3] is given as “robust detection of leupeptin”. In assay [4], the culture growth result is listed as “grew fastest”.
Consider `O=C(CO)N[C@H]1[C@H]([C@H](O)[C@H](O)CO)OC(O)(C(=O)O)C[C@@H]1O` (stereo partly shown) [Neu5Gc, N-glycolneuraminic acid], for which the “induction of leupeptin (1) production” value in assay [3] is “unable to induce the production of 1”. The culture growth result in assay [4] is given as “grew about as fast as non-”.

These data come from publication PMC11480411, “Mucosal sugars delineate pyrazine vs pyrazinone autoinducer signaling in Klebsiella oxytoca” (Nature Communications, 2024).
